Measurements as given in patent US8129365B2, “Water-soluble, fluorescent compounds for detection of potassium ions” (The Regents of the University of California, priority 2005, dated 2012).
Entries after “also recorded” stand apart in the source; their conditions may differ.

How the values were obtained:
[1] = Fluorescence titrations of TAC-Red (spectroscopic analysis); type: physicochemical
Method: The TAC-Red compound was subjected to spectroscopic analysis. Fluorescence measurements were carried out by standard procedures using a FluoroMax-3 fluorimeter. Fluorescence titrations were carried out at 540 nm excitation and 574 nm emission wavelengths using aqueous solution containing about 7 μM at pH 7.0 (buffered with 5 mM HEPES) unless titrated with NaOH/HCl to other pH.
Spectra in FIG. 1, Panel b were obtained using balanced KCl/choline Cl to keep ionic strength constant at 300 mM. The titration in FIG. 1, panel c was done by adding indicated NaCl/KCl from concentrated stock solutions. The data in FIG. 1, panel d were obtained at constant ionic strength (300 mM) using NaCl or choline Cl to balance the KCl.

[2] = Stop-flow measurement of TAC-Red fluorescence response; type: physicochemical; settings: K^+ increased from 0 to 5 mM
Method: The TAC-Red fluorescence response was rapid when K^+ was increased from 0 to 5 mM in a stop-flow measurement (FIG. 1, panel c, inset), with greater than 90% of the fluorescence increase occurring in under 1 ms.

[3] = test system: Fisher rat thyroid epithelial cell monolayers; experiment: Transport across epithelial cell monolayers; type: in vitro ADME
Excerpt: (§1) TAC-Red fluorescence was not sensitive to divalent cations (Ca^++ or Mg^++) or various anions, or to pH in the range 6-8 (FIG. 1, panel e).

cell viability or growth = experiment: Cell viability or growth; type: cell-based
Excerpt: as §1

brain cortex ECS = experiment: TAC-Red [K^+]o measurements in brain cortex (spreading depression); type: in vivo, mice; settings: freshly cut brain slices, 5 min transdural loading with about 50 μM
Method: TAC-Red [K^+]o measurements in brain cortex. Wildtype and AQP4 null mice in a CD1 genetic background (30-35 g body weight/age 10-12 weeks) were used (described in Ma et al. Ma et al. J. Clin. Invest. 100, 957-962 (1997)). These mice are phenotypically normal at baseline and have normal brain architecture; however they manifest altered brain swelling in response to cytotoxic and vasogenic forms of edema. Mice were anesthetized with 2,2,2-tribromoethanol (125 mg/kg, intraperitoneal (ip)) and the head was immobilized in a standard mouse stereotactic frame. Body temperature was maintained at 36-37° C. using a heating pad. The skull was exposed by a midline skin incision. A 2.7 mm diameter circular area of the thin, semi-translucent skull bone located 0.5 mm lateral to the midline and 1 mm posterior to the bregma was removed using a microdrill under microscope to expose intact dura with underlying brain. […]
Fluorescence was measured using a 1.6× objective lens (working distance 24 mm, numerical aperture 0.21), and custom filter set for TAC-Red (HQ, Chroma). […] Fluorescence was imaged using a 14-bit 1024×1024 pixel cooled CCD camera (CoolSnap HQ, Photometrics). […]
Image analysis. […] Half-times (t1/2) for the increasing and decreasing phases of TAC-Red fluorescence were determined by exponential regression analysis. […]

Water solubility = type: physicochemical
CHO-K1 cells [4] = experiment: K^+ efflux in CHO cells measured by TAC-Red fluorescence, fluorescence microscopy; type: cell-based; settings: 10 μM pre-incubation, epifluorescence microscopy
Method: (§2) TAC-Red as an indicator for measurement of K^+ channel function for high-throughput screening applications. CHO-K1 cells (ATCC CCL-61) were cultured in Ham's F12 media supplemented with 10% fetal bovine serum, 100 U/ml penicillin and 100 μg/ml streptomycin at 37° C. in a 5% CO2/95% air atmosphere and used at ˜90% confluence. For measurements using epifluorescence microscopy cells were grown until reaching confluency on 18-mm diameter round glass coverslips. For fluorescence plate reader assays cells were cultured on Costar 96-well black plates with a clear flat bottom and used when just confluent. […]
Fluorescence microscopy: For most experiments cells on coverslips were incubated in 1 ml high K^+ buffer for 2 min prior to experiments. […] The washed cells were immediately placed cell-side down on the slide and fluorescence measured continuously. TAC-Red fluorescence was excited at 545±30 nm and detected through a 610±75 nm filter (570 nm dichroic) using a long working distance 25× air objective lens.
TAC-Red was used as an indicator of extracellular K^+, such that the rate of initial K^+ efflux into a 0 K^+ buffer could be measured. […]

CHO-K1 cells [5] = experiment: K^+ efflux measured by TAC-Red fluorescence, plate reader assay; type: cell-based; settings: 10 μM preincubation
Method: as §2
Plate reader assay: Measurements were done using a Fluostar plate reader (BMG LabTechnologies) with syringe pump for automated solution addition. […] The plate was loaded onto plate reader and after 6 s of fluorescence measurement 30 μl of TAC-Red (150 μM) in 0 K^+ buffer was added via syringe pump. TAC-Red fluorescence was excited using an HQ545/30 filter (Chroma) and emitted fluorescence was detected through a HQ585/30 filter.

SMILES	Effect of Na^+ on TAC-Red fluorescence vs. K^+ ([1]; 150 mM Na^+ in place of 150 mM choline^+)	Effect of Na^+ on TAC-Red fluorescence ([1]; 50 and 150 mM Na^+)	Sensitivity of fluorescence to divalent cations ([1]; Ca^++ or Mg^++)	TAC-Red fluorescence increase ([1]; K^+ concentration increasing from 0-200 mM, 540 nm excitation, 574 nm emission, pH 7.0)	K^+ sensitivity of fluorescence ([1]; K^+ in the range 0 to >100 mM)	K^+ sensitivity of fluorescence ([1]; K^+ range 0-40 mM expected in the brain ECS)	K^+-to-Na^+ selectivity ratio ([1]; at 50 mM)	Specificity in titrations with monovalent cations ([1]; monovalent cations)	Sensitivity of fluorescence to pH ([1]; pH in the range 6-8)	Sensitivity of fluorescence to various anions ([1]; various anions)	Share of fluorescence increase occurring in under 1 ms [2]	Membrane permeability [3]	Transport across cell monolayers ([3]; in 6 hours) [%]	Effect on cell viability or growth (cell viability or growth)	Depth of TAC-Red staining beneath the brain surface (brain cortex ECS) [μm]	Water solubility (Water solubility)	Effect on K^+ efflux (CHO-K1 cells [4])	Effect on K^+ efflux (CHO-K1 cells [5])
COCCOc1cc(-c2c3ccc(=[N+](C)C)cc-3oc3cc(N(C)C)ccc23)ccc1N1CCOc2cc(C)ccc2N2CCOCCOCCN(CCOCCOCC2)c2ccc(C)cc2OCC1.[Cl-] [TAC-Red, {6-Dimethylamino-9-[4-(6,7,9,10,12,13,20,21,23,24-decahydro-2,17-dimethyl-5,14-(ethanoxyethanoxyethano)-5H,14H,22H-dibenzo[h,q][1,4,10,16,7,13,19]tetraoxatriazacyclo-heneicosin-22-yl)-3-(2-methoxyethoxy)phenyl]xanthen-3-ylidene}dimethylammonium chloride]	did not affect	increased slightly	not sensitive	more than 23 fold	highly sensitive	excellent K^+ sensitivity	about 37	specificity for K^+, Rb^+ and Cs^+ over Na^+ and Li^+	not sensitive	not sensitive	greater than 90%	membrane impermeant; also recorded: membrane-impermeable	< 1	did not affect	> 500	water soluble	–	–
CC(C)[C@@H]1NC(=O)[C@H](C)OC(=O)[C@@H](C(C)C)NC(=O)[C@@H](C(C)C)OC(=O)[C@H](C(C)C)NC(=O)[C@H](C)OC(=O)[C@@H](C(C)C)NC(=O)[C@@H](C(C)C)OC(=O)[C@H](C(C)C)NC(=O)[C@H](C)OC(=O)[C@@H](C(C)C)NC(=O)[C@@H](C(C)C)OC1=O [valinomycin]	–	–	–	–	–	–	–	–	–	–	–	–	–	–	–	–	increased K^+ efflux	increased K^+ efflux
